Results published in patent US8912195B2, “Alkyl amides as HIV attachment inhibitors” (priority 2010, dated 2014).
Read-outs that look alike come from different tables or passages of the source.

System: single-round infectious reporter virus with HIV-1 LAI envelope
Test: Single-round infectious HIV-1 LAI luciferase reporter virus infection of MT2 cells
Type: cell-based
Conditions: Human immunodeficiency virus 1, MT2, 72 h
From the text: • Virus production—Human embryonic Kidney cell line, 293T (HEK 293T), was propagated in Dulbecco's Modified Eagle Medium (Invitrogen, Carlsbad, Calif.) containing 10% fetal Bovine serum (FBS, Sigma, St. Louis, Mo.). The human T-cell leukemia cell MT2 (AIDS Research and Reference Reagent Program, Cat. 237) was propagated in RPMI 1640 (Invitrogen, Carlsbad, Calif.) containing 10% fetal bovine serum (FBS, Hyclone, Logan, Utah) • Virus infection—Single-round infectious reporter virus was produced by co-transfecting HEK 293T cells with plasmide expressing the HIV-1 LAI envelope along with a plasmid containing an HIV-1 LAI proviral cDNA with the envelope gene replaced by a firefly luciferase reporter gene (Chen et al, Ref 41). Transfections were performed using lipofectAMINE PLUS reagent as described by the manufacturer (Invitrogen, Carlsbad, Calif.).
• 1. MT2 cells were plated in black, 384 well plates at a cell density of 5×10^3 cells per well in 25 μl RPMI 1640 containing 10% FBS. • 2. Compound (diluted in dimethylsulfoxide and growth medium) was added to cells at 12.5 μl/well, so that the final assay concentration would be ≦50 nM. • 3. 12.5 μl of single-round infectious reporter virus in Dulbecco's Modified Eagle Medium was added to the plated cells and compound at an approximate multiplicity of infection (MOI) of 0.01, resulting in a final volume of 50 μl per well. • 4. Virus-infected cells were incubated at 37 degrees Celsius, in a CO2 incubator, and harvested 72 h after infection. • 5. Viral infection was monitored by measuring luciferase expression in the infected cells using a luciferase reporter gene assay kit (Steady-Glo, Promega, Madison, Wis.) as described by the manufacturer. Luciferase activity was then quantified by measuring luminescence using an EnVision Multilabel Plate Readers (PerkinElmer, Waltham, Mass.). • 6. The percent inhibition for each compound was calculated by quantifying the level of luciferase expression in cells infected in the presence of each compound as a percentage of that observed for cells infected in the absence of compound and subtracting such a determined value from 100. • 7. An EC50 provides a method for comparing the antiviral potency of the compounds of this disclosure. The effective concentration for fifty percent inhibition (EC50) was calculated with the Microsoft Excel Xlfit curve fitting software. For each compound, curves were generated from percent inhibition calculated at 10 different concentrations by using a four paramenter logistic model (model 205). Table 1 is the key for the data in Table 2.

[1] = read-out: EC50 Group from Table 1

Structure (SMILES): CCC(=O)N1CCN(C(=O)C(=O)c2c[nH]c3c(-n4cnc(C)n4)ncc(OC)c23)CC1 [Compound 2050]
- EC50: 10.4 nM
- EC50 [1]: < 500 nM

Structure (SMILES): O=C(C(=O)N1CCN(C(=O)C2CCC(O)CC2)CC1)c1c[nH]c2c(-n3ccnn3)ncc(F)c12 (stereo not drawn) [Compound 2018]
- EC50 [1]: < 500 nM

Structure (SMILES): O=C(C(=O)N1CCN(C(=O)CCC2CCCC2)CC1)c1c[nH]c2c(-n3ccnn3)ncc(F)c12 [Compound 2043]
- EC50 [1]: < 500 nM

Structure (SMILES): CN1CCC[C@H]1C(=O)N1CCN(C(=O)C(=O)c2c[nH]c3c(-n4ccnn4)ncc(F)c23)CC1 [Compound 2030]
- EC50 [1]: > 500 nM

Structure (SMILES): CC(C)(C)OC(=O)N[C@@H](C(=O)N1CCN(C(=O)C(=O)c2c[nH]c3c(-n4ccnn4)ncc(F)c23)CC1)c1ccccc1 [Compound 2026]
- EC50 [1]: > 500 nM

Structure (SMILES): C[C@]1(C(=O)N2CCN(C(=O)C(=O)c3c[nH]c4c(-n5ccnn5)ncc(F)c34)CC2)CCCN1 [Compound 2007]
- EC50 [1]: > 500 nM

Structure (SMILES): O=C(C(=O)N1CCN(C(=O)C23CC4CC(CC(C4)C2)C3)CC1)c1c[nH]c2c(-n3ccnn3)ncc(F)c12 [Compound 2016]
- EC50 [1]: < 500 nM

Structure (SMILES): CC(C)(C)C1CCC(C(=O)N2CCN(C(=O)C(=O)c3c[nH]c4c(-n5ccnn5)ncc(F)c34)CC2)CC1 (stereo not drawn) [Compound 2009]
- EC50 [1]: > 500 nM

Structure (SMILES): C[C@H]1CC[C@H](C(=O)N2CCN(C(=O)C(=O)c3c[nH]c4c(-n5ccnn5)ncc(F)c34)CC2)CC1 [Compound 2012]
- EC50 [1]: < 500 nM

Structure (SMILES): CCC(=O)N1CCN(C(=O)C(=O)c2c[nH]c3c(-n4ccnn4)ncc(F)c23)CC1 [Compound 2046]
- EC50: 6.88 nM
- EC50 [1]: < 500 nM

Structure (SMILES): O=C(C(=O)N1CCN(C(=O)C23CC4CC(CC2C4)C3)CC1)c1c[nH]c2c(-n3ccnn3)ncc(F)c12 [Compound 2004]
- EC50: 1.15 nM
- EC50 [1]: < 500 nM

Structure (SMILES): COCCOCC(=O)N1CCN(C(=O)C(=O)c2c[nH]c3c(-n4cnc(C)n4)ncc(OC)c23)CC1 [Compound 2051]
- EC50 [1]: > 500 nM

Structure (SMILES): O=C(C(=O)N1CCN(C(=O)C2CCOCC2)CC1)c1c[nH]c2c(-n3ccnn3)ncc(F)c12 [Compound 2014]
- EC50: 12.5 nM
- EC50 [1]: < 500 nM

Structure (SMILES): O=C(C(=O)N1CCN(C(=O)C2CCC(F)(F)CC2)CC1)c1c[nH]c2c(-n3ccnn3)ncc(F)c12 [Compound 2022]
- EC50 [1]: < 500 nM

Structure (SMILES): CC(C)(C)OC(=O)N1CCC(C(=O)N2CCN(C(=O)C(=O)c3c[nH]c4c(-n5ccnn5)ncc(F)c34)CC2)CC1 [Compound 2035]
- EC50 [1]: > 500 nM

Structure (SMILES): O=C(C(=O)N1CCN(C(=O)[C@H](O)c2ccccc2)CC1)c1c[nH]c2c(-n3ccnn3)ncc(F)c12 [Compound 2019]
- EC50: 344 nM
- EC50 [1]: < 500 nM

Structure (SMILES): CC1(C)CC(C(=O)N2CCN(C(=O)C(=O)c3c[nH]c4c(-n5ccnn5)ncc(F)c34)CC2)CC(C)(C)N1 [Compound 2025]
- EC50 [1]: > 500 nM

Structure (SMILES): O=C(C(=O)N1CCN(C(=O)C2CC2)CC1)c1c[nH]c2c(-n3ccnn3)ncc(F)c12 [Compound 2038]
- EC50 [1]: < 500 nM

Structure (SMILES): CN1CCC(C(=O)N2CCN(C(=O)C(=O)c3c[nH]c4c(-n5ccnn5)ncc(F)c34)CC2)CC1 [Compound 2020]
- EC50 [1]: > 500 nM

Structure (SMILES): CN(C)[C@@H](C(=O)N1CCN(C(=O)C(=O)c2c[nH]c3c(-n4ccnn4)ncc(F)c23)CC1)c1ccccc1 [Compound 2036]
- EC50 [1]: > 500 nM

Structure (SMILES): CN(C)CC(=O)N1CCN(C(=O)C(=O)c2c[nH]c3c(-n4ccnn4)ncc(F)c23)CC1 [Compound 2045]
- EC50 [1]: > 500 nM

Structure (SMILES): CC(C)C(=O)N1CCN(C(=O)C(=O)c2c[nH]c3c(-n4ccnn4)ncc(F)c23)CC1 [Compound 2039]
- EC50 [1]: < 500 nM

Structure (SMILES): O=C(C(=O)N1CCN(C(=O)C2CC3CCC2C(O)C3)CC1)c1c[nH]c2c(-n3ccnn3)ncc(F)c12 (stereo not drawn) [Compound 2008]
- EC50: 5.1 nM
- EC50 [1]: < 500 nM

Structure (SMILES): COc1cnc(-n2ccnn2)c2[nH]cc(C(=O)C(=O)N3CCN(C(=O)C4CCCCCC4)CC3)c12 [Compound 1004, 1-(4-(cycloheptanecarbonyl)piperazin-1-yl)-2-(4-methoxy-7-(1H-1,2,3-triazol-1-yl)-1H-pyrrolo[2,3-c]pyridin-3-yl)ethane-1,2-dione]
- EC50: 0.14 nM
- EC50 [1]: < 500 nM

Structure (SMILES): COc1cnc(-n2cnc(C)n2)c2[nH]cc(C(=O)C(=O)N3CCN(C(=O)CN(C)C)CC3)c12 [Compound 2049]
- EC50 [1]: > 500 nM

Structure (SMILES): O=C(C(=O)N1CCN(C(=O)C2CCOC2)CC1)c1c[nH]c2c(-n3ccnn3)ncc(F)c12 (stereo not drawn) [Compound 2015]
- EC50 [1]: < 500 nM

Structure (SMILES): CC(C)(C)OC(=O)N[C@H](C(=O)N1CCN(C(=O)C(=O)c2c[nH]c3c(-n4ccnn4)ncc(F)c23)CC1)c1ccccc1 [Compound 2031]
- EC50 [1]: > 500 nM

Structure (SMILES): CCCCCC(=O)N1CCN(C(=O)C(=O)c2c[nH]c3c(-n4cnc(C)n4)ncc(OC)c23)CC1 [Compound 2040]
- EC50 [1]: < 500 nM

Structure (SMILES): O=C(C(=O)N1CCN(C(=O)C2CCCCCC2)CC1)c1c[nH]c2c(-n3ccnn3)ncc(F)c12 [Compound 2005]
- EC50: 0.36 nM
- EC50 [1]: < 500 nM

Structure (SMILES): CC(C)(C)OC(=O)N1CCCC(C(=O)N2CCN(C(=O)C(=O)c3c[nH]c4c(-n5ccnn5)ncc(F)c34)CC2)C1 (stereo not drawn) [Compound 2034]
- EC50 [1]: > 500 nM

Structure (SMILES): CN1CCCCC1C(=O)N1CCN(C(=O)C(=O)c2c[nH]c3c(-n4ccnn4)ncc(F)c23)CC1 (stereo not drawn) [Compound 2029]
- EC50 [1]: > 500 nM

Structure (SMILES): C[C@]12C[C@]3(C)C[C@](N)(C1)C[C@](C(=O)N1CCN(C(=O)C(=O)c4c[nH]c5c(-n6ccnn6)ncc(F)c45)CC1)(C2)C3 [Compound 2032]
- EC50 [1]: > 500 nM

Structure (SMILES): CC[C@@]12CC3C[C@@](O)(C1)C[C@](C(=O)N1CCN(C(=O)C(=O)c4c[nH]c5c(-n6ccnn6)ncc(F)c45)CC1)(C3)C2 [Compound 2027]
- EC50 [1]: < 500 nM

Structure (SMILES): O=C(C(=O)N1CCN(C(=O)C2CCCCC2)CC1)c1c[nH]c2c(-n3ccnn3)ncc(F)c12 [Compound 2017]
- EC50: 0.11 nM
- EC50 [1]: < 500 nM

Structure (SMILES): CC(C)=C[C@@H]1[C@@H](C(=O)N2CCN(C(=O)C(=O)c3c[nH]c4c(-n5ccnn5)ncc(F)c34)CC2)C1(C)C [Compound 2011]
- EC50 [1]: > 500 nM

Structure (SMILES): O=C(C(=O)N1CCN(C(=O)C2CCCOC2)CC1)c1c[nH]c2c(-n3ccnn3)ncc(F)c12 (stereo not drawn) [Compound 2024]
- EC50 [1]: < 500 nM

Structure (SMILES): CC1CCCC(C(=O)N2CCN(C(=O)C(=O)c3c[nH]c4c(-n5ccnn5)ncc(F)c34)CC2)C1 (stereo not drawn) [Compound 2001]
- EC50 [1]: < 500 nM

Structure (SMILES): COCCOCC(=O)N1CCN(C(=O)C(=O)c2c[nH]c3c(-n4ccnn4)ncc(F)c23)CC1 [Compound 2047]
- EC50 [1]: > 500 nM

Structure (SMILES): COCC(=O)N1CCN(C(=O)C(=O)c2c[nH]c3c(-n4cnc(C)n4)ncc(OC)c23)CC1 [Compound 2048]
- EC50 [1]: < 500 nM

Structure (SMILES): CC(C)(C)OC(=O)N1CCC(C(=O)N2CCN(C(=O)C(=O)c3c[nH]c4c(-n5ccnn5)ncc(F)c34)CC2)C1 (stereo not drawn) [Compound 2033]
- EC50 [1]: > 500 nM

Structure (SMILES): CCCCCC(=O)N1CCN(C(=O)C(=O)c2c[nH]c3c(-n4ccnn4)ncc(F)c23)CC1 [Compound 2042]
- EC50 [1]: < 500 nM

Structure (SMILES): COCC(=O)N1CCN(C(=O)C(=O)c2c[nH]c3c(-n4ccnn4)ncc(F)c23)CC1 [Compound 2044]
- EC50 [1]: < 500 nM

Structure (SMILES): COc1cnc(-n2ccnn2)c2[nH]cc(C(=O)C(=O)N3CCN(C(=O)[C@]45C[C@H]6C[C@H](C[C@H](C6)C4)C5)CC3)c12 [Compound 1003]
- EC50 [1]: < 500 nM

Structure (SMILES): O=CN1CCCC(C(=O)N2CCN(C(=O)C(=O)c3c[nH]c4c(-n5ccnn5)ncc(F)c34)CC2)C1 (stereo not drawn) [Compound 2028]
- EC50: 25.5 nM
- EC50 [1]: < 500 nM

Structure (SMILES): NC1(C(=O)N2CCN(C(=O)C(=O)c3c[nH]c4c(-n5ccnn5)ncc(F)c34)CC2)CCCC1 [Compound 2013]
- EC50: 451 nM
- EC50 [1]: < 500 nM

Structure (SMILES): CN(C)[C@H](C(=O)N1CCN(C(=O)C(=O)c2c[nH]c3c(-n4ccnn4)ncc(F)c23)CC1)c1ccccc1 [Compound 2037]
- EC50 [1]: > 500 nM

Structure (SMILES): COc1cnc(-n2cnc(C)n2)c2[nH]cc(C(=O)C(=O)N3CCN(C(=O)CCC4CCCC4)CC3)c12 [Compound 2041]
- EC50 [1]: < 500 nM

Structure (SMILES): CN1CCCC(C(=O)N2CCN(C(=O)C(=O)c3c[nH]c4c(-n5ccnn5)ncc(F)c34)CC2)C1 (stereo not drawn) [Compound 2021]
- EC50: 76.9 nM
- EC50 [1]: < 500 nM

Structure (SMILES): CC(C)CC(=O)N1CCN(C(=O)C(=O)c2c[nH]c3c(-n4ccnn4)ncc(F)c23)CC1 [Compound 1001, 1-(4-fluoro-7-(1H-1,2,3-triazol-1-yl)-1H-pyrrolo[2,3-c]pyridin-3-yl)-2-(4-(3-methylbutanoyl)piperazin-1-yl)ethane-1,2-dione]
- EC50 [1]: < 500 nM

Structure (SMILES): N[C@H]1CCCC[C@@H]1C(=O)N1CCN(C(=O)C(=O)c2c[nH]c3c(-n4ccnn4)ncc(F)c23)CC1 [Compound 2006]
- EC50 [1]: > 500 nM

Structure (SMILES): CC1CCCCC1C(=O)N1CCN(C(=O)C(=O)c2c[nH]c3c(-n4ccnn4)ncc(F)c23)CC1 (stereo not drawn) [Compound 2003]
- EC50 [1]: < 500 nM
